Test system: Male ddY mice
Experiment: Forced swim test
Type: in vivo
Settings: Mus musculus, oral, dose 10 mg/kg, 4 hours after administration, immobility time measured for six minutes, ratio to control group (0.5% methylcellulose)
Procedure: (Test Example) Forced Swim Test
Male ddY mice (4 weeks old at the time of evaluation) were used for the test in groups of 10 mice. The mice were placed in a water bath (inner diameter 14.5 cm, height 20 cm, water temperature about 24° C.) with water filled to a height of about 15 cm, and a swimming trial was carried out for 15 minutes (training trial). The next day, mice were orally administered with a suspension of each compound (10 mL/kg, solvent: 0.5% methylcellulose aqueous solution) was orally administered to the mice, and four hours later, they were placed in the water bath. Immobility time (sec) was measured for six minutes immediately after that, and the ratio of the average immobility time of each compound administration group with respect to the average immobility time of a control group (10 mL/kg administration of 0.5% methylcellulose aqueous solution without a compound) was calculated.

Compared with `CCn1ccc(-c2cc(OC)c3c(c2Cl)O[C@]2(C3=O)C(OC)=CC(=O)C[C@H]2C)n1` [Example 4, (2S,5′R)-7-chloro-6-(1-ethylpyrazol-3-yl)-3′,4-dimethoxy-5′-methyl-spiro [benzofuran-2,4′-cyclohex-2-ene]-1′,3-dione], `COC1=CC(=O)C[C@@H](C)[C@]12Oc1c(Cl)c(-c3ccn(C)n3)cc(OC)c1C2=O` [Example 3, (2S,5′R)-7-chloro-3′,4-dimethoxy-5′-methyl-6-(1-methylpyrazol-3-yl) spiro [benzofuran-2,4′-cyclohex-2-ene]-1′,3-dione] is higher in response vs control in vivo at 10 mg/kg: 61% for the first, 84% for the second.

Going from `COCCOc1cc(OC)c2c(c1Cl)O[C@]1(C2=O)C(OC)=CC(=O)C[C@H]1C` [Example 2, (2S,5′R)-7-chloro-3′,4-dimethoxy-6-(2-methoxyethoxy)-5′-methyl-spiro [benzofuran-2,4′-cyclohex-2-ene]-1′,3-dione] to `COC1=CC(=O)C[C@@H](C)[C@]12Oc1c(Cl)c(-c3ccc(OC)nc3)cc(OC)c1C2=O` [Example 31, (2S,5′R)-7-chloro-3′,4-dimethoxy-6-(6-methoxy-3-pyridyl)-5′-methyl-spiro [benzofuran-2,4′-cyclohex-2-ene]-1′,3-dione], the response vs control in vivo at 10 mg/kg falls from 71% to 68%.

Going from `CCOc1cc(-c2nnc(C)o2)c(Cl)c2c1C(=O)[C@@]1(O2)C(OC)=CC(=O)C[C@H]1C` [Example 22, (2S,5′R)-7-chloro-4-ethoxy-3′-methoxy-5′-methyl-6-(5-methyl-1,3,4-oxadiazol-2-yl) spiro [benzofuran-2,4′-cyclohex-2-ene]-1′,3-dione] to `COC1=CC(=O)C[C@@H](C)[C@]12Oc1c(Cl)c(-c3nnc(C)o3)cc(OC)c1C2=O` [Example 5, (2S,5′R)-7-chloro-3′,4-dimethoxy-5′-methyl-6-(5-methyl-1,3,4-oxadiazol-2-yl) spiro [benzofuran-2,4′-cyclohex-2-ene]-1′,3-dione], the response vs control in vivo at 10 mg/kg falls from 88% to 62%.

Compared with `CCc1nnc(-c2cc(OC)c3c(c2Cl)O[C@]2(C3=O)C(OC)=CC(=O)C[C@H]2C)o1` [Example 17, (2S,5′R)-7-chloro-6-(5-ethyl-1,3,4-oxadiazol-2-yl)-3′,4-dimethoxy-5′-methyl-spiro [benzofuran-2,4′-cyclohex-2-ene]-1′,3-dione], `COC1=CC(=O)C[C@@H](C)[C@]12Oc1c(Cl)c(-c3nnc([C@H](C)OC)o3)cc(OC)c1C2=O` [Example 21, (2S,5′R)-7-chloro-3′,4-dimethoxy-6-[5-[(1S)-1-methoxyethyl]-1,3,4-oxadiazol-2-yl]-5′-methyl-spiro [benzofuran-2,4′-cyclohex-2-ene]-1′,3-dione] is higher in response vs control in vivo at 10 mg/kg: 72% for the first, 87% for the second.

Compared with `COC1=CC(=O)C[C@@H](C)[C@]12Oc1c(Cl)c(-c3nc(C)no3)cc(OC)c1C2=O` [Example 6, (2S,5′R)-7-chloro-3′,4-dimethoxy-5′-methyl-6-(3-methyl-1,2,4-oxadiazol-5-yl) spiro [benzofuran-2,4′-cyclohex-2-ene]-1′,3-dione], `COC1=CC(=O)C[C@@H](C)[C@]12Oc1c(Cl)c(-c3nc(C(C)(C)O)no3)cc(OC)c1C2=O` [Example 25, (2S,5′R)-7-chloro-6-[3-(1-hydroxy-1-methyl-ethyl)-1,2,4-oxadiazol-5-yl]-3′,4-dimethoxy-5′-methyl-spiro [benzofuran-2,4′-cyclohex-2-ene]-1′,3-dione] is lower in response vs control in vivo at 10 mg/kg: 67% for the first, 58% for the second.

Going from `COC1=CC(=O)C[C@@H](C)[C@]12Oc1c(Cl)c(C3=NOC4(CCOCC4)C3)cc(OC)c1C2=O` [Example 28, (2S,5′R)-7-chloro-6-(1,8-dioxa-2-azaspiro [4.5]dec-2-en-3-yl)-3′,4-dimethoxy-5′-methyl-spiro [benzofuran-2,4′-cyclohex-2-ene]-1′,3-dione] to `COC1=CC(=O)C[C@@H](C)[C@]12Oc1c(Cl)c(-c3nnc(C4CCOCC4)o3)cc(OC)c1C2=O` [Example 18, (2S,5′R)-7-chloro-3′,4-dimethoxy-5′-methyl-6-(5-tetrahydropyran-4-yl-1,3,4-oxadiazol-2-yl) spiro [benzofuran-2,4′-cyclohex-2-ene]-1′,3-dione], the response vs control in vivo at 10 mg/kg rises from 80% to 85%.

Going from `COC1=CC(=O)C[C@@H](C)[C@]12Oc1c(Cl)c(-c3cnc(OC)nc3)cc(OC)c1C2=O` [Example 30, (2S,5′R)-7-chloro-3′,4-dimethoxy-6-(2-methoxypyrimidin-5-yl)-5′-methyl-spiro [benzofuran-2,4′-cyclohex-2-ene]-1′,3-dione] to `COC1=CC(=O)C[C@@H](C)[C@]12Oc1c(Cl)c(-c3ccn[nH]3)cc(OC)c1C2=O` [Example 26, (2S,5′R)-7-chloro-3′,4-dimethoxy-5′-methyl-6-(1H-pyrazol-5-yl) spiro [benzofuran-2,4′-cyclohex-2-ene]-1′,3-dione], the response vs control in vivo at 10 mg/kg rises from 70% to 72%.

With `COC1=CC(=O)C[C@@H](C)[C@]12Oc1c(Cl)c(-c3nc(C(C)OC)no3)cc(OC)c1C2=O` (stereo partly drawn) [Example 24, (2S,5′R)-7-chloro-3′,4-dimethoxy-6-[3-(1-methoxyethyl)-1,2,4-oxadiazol-5-yl]-5′-methyl-spiro [benzofuran-2,4′-cyclohex-2-ene]-1′,3-dione] the response vs control in vivo at 10 mg/kg was 65%.

Same assay, conditions: Mus musculus, oral, dose 100 mg/kg, 4 hours after administration, immobility time measured for six minutes, ratio to control group (0.5% methylcellulose)

With `COC1=CC(=O)C[C@@H](C)[C@]12Oc1c(Cl)c(OC)cc(OC)c1C2=O` [Griseofulvin, (2S,5′R)-7-chloro-3′,4,6-trimethoxy-5′-methyl-spiro [benzofuran-2,4′-cyclohex-2-ene]-1′,3-dione] the response vs control in vivo at 100 mg/kg was 72%.

Reference: patent publication US11993593B2, “Griseofulvin compound and pharmaceutical use thereof” (Daiichi Sankyo Company, Limited, priority 2017, dated 2024)
